This note sets out measurements from patent US20070259055A1, “Method of deactivating dust mite allergens” (priority 2000, published 2007).

The experiment addresses T1, house dust mite (Dermatophagoides pteronyssinus) allergen (Der-pl) (Dermatophagoides pteronyssinus, UniProt P08176).
T1 construct: Test dust had been obtained from household vacuum cleaner bags; from tissue; host or cells: house dust (British; vacuum cleaner bags), sieved fraction smaller than 53 microns
T1 sequence (P08176 99-320): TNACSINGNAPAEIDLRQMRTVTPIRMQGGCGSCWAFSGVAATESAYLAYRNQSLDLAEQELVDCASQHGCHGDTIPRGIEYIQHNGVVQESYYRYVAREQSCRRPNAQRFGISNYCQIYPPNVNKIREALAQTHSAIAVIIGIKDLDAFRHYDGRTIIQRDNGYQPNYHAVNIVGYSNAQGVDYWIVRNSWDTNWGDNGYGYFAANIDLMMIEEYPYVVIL
Description: Example 3: test liquid sprayed onto dust in petri dish, Der-pl ELISA. The class given is biochemical. As for the experimental part: Dust was collected from vacuum cleaner bags and passed through a series of sieves down to 53 microns. Clean petri dishes were labeled with the chemical to be tested and lined with filter paper. 0.3 g of dust was added to each dish and spread evenly over the filter paper. 0.1 g of dust was then removed from the filter paper for a control sample. The remaining dust was then redistributed evenly over the filter paper. 2.4 g+/−0.2 g of test chemical was sprayed onto the dust sample. The dust sample was left open to the air until the filter paper was dry. The dust was collected into eppendorfs and the weight of dust recovered was measured. 1 ml of 1% Bovine Serum Albumin-Phosphate Buffered Saline-Tween (BSA-PBS-T) was added to the control samples. 1 ml of 5% BSA-PBS-T was added to the test samples. The samples were left overnight in the refrigerator and then centrifuged for 5 minutes at 13,000 rpm. The supernatant was pipetted into an eppendorf for assay by Der-pl ELISA.
The test liquids were: • Distilled water • 2% Tea Tree Oil in distilled water (plus 0.1% Tween) • 2% Citronella Oil in distilled water (plus 0.10% Tween) • 1% Thymol in distilled water (plus 0.8% Tween) • 2% Hinoki Oil in distilled water (plus 0.1% Tween) • 2% Tannic Acid
Five replicates were completed for each test liquid. The allergen content of the control for each replicate was compared with the test sample allergen. The percentage reductions in allergen between the control and the test were determined for each replicate.
For orientation: ELISA stands for enzyme-linked immunosorbent assay.

Take `Cc1ccc(C(C)C)c(O)c1` [Thymol, 6-isopropyl-m-cresol]: the “allergen reduction more than the water alone tests” value (test liquid sprayed onto dust (2% Tea Tree Oil or 1% Thymol in distilled water plus Tween), average of five replicates, water alone 34.2%) is 23.6%. In addition, the “significance of allergen reduction versus water tests” value (test liquid sprayed onto dust, t-test versus water) was “significant”. For the setting “2% Tannic Acid sprayed onto dust, positive control, five replicates”, `O=C(OC[C@H]1O[C@@H](OC(=O)c2cc(O)c(O)c(OC(=O)c3cc(O)c(O)c(O)c3)c2)[C@H](OC(=O)c2cc(O)c(O)c(OC(=O)c3cc(O)c(O)c(O)c3)c2)[C@@H](OC(=O)c2cc(O)c(O)c(OC(=O)c3cc(O)c(O)c(O)c3)c2)[C@@H]1OC(=O)c1cc(O)c(O)c(OC(=O)c2cc(O)c(O)c(O)c2)c1)c1cc(O)c(O)c(OC(=O)c2cc(O)c(O)c(O)c2)c1` [tannic acid] displayed an average allergen reduction of 99.15%.
